Laboratory results from publication PMC3183052, “Immunoprotectivity of HLA-A2 CTL Peptides Derived from Respiratory Syncytial Virus Fusion Protein in HLA-A2 Transgenic Mouse” (PLoS ONE, 2011).

Key:
[1] = tested on: splenocytes from HLA-A*0201 transgenic C57BL/6 mice; experiment: IL-2 ELISPOT of splenocytes restimulated with peptide; assay type: cell-based, mouse; conditions: for IL-2 ELISPOT, RSV: splenocytes of HLA-Tg B6 mice primed and boosted i.n. with 10^4 pfu RSV-B1; for IL-2 ELISPOT, RSV / IL-2 ELISPOT, rAd-F0: restimulated with 2 µg peptide, representative of two experiments, five mice per group; for IL-2 ELISPOT, rAd-F0: splenocytes of HLA-Tg B6 mice primed and boosted i.n. with 10^7 pfu rAd-F0; for IL-2 level in restimulated splenocytes (ELISPOT, text grading): splenocytes of rAd-F0- or RSV B1-primed and boosted HLA-Tg B6 mice, high = over 100 spots, moderate = over 50 spots
Method: (§1) To screen the immunodominance of epitopic peptide in the induction of RSV-F specific Th1/Th2 expression, HLA-A*0201 transgenic C57BL/6 mice were anesthetized with isoflurane and immunized with 1×10^7 pfu/50 µL of rAd-F0 or rAd-LacZ or 1×10^4 live RSV B1 via the intranasal (i.n.) route. Twenty days later, the mice were given booster immunization i.n. with the same dose. After 10 days of boost, mice were sacrificed and splenocytes were isolated for the cytokine ELISPOT assay. For peptide-based vaccination, transgenic mice were immunized subcutaneously (s.c.) with 50 µg of the individual synthetic peptides emulsified in 25 µL of incomplete Freund's adjuvant (IFA) (Sigma-Aldrich) and then boosted after 10 days s.c. with the same dose of the respective peptides mixed with IFA. Mice were sacrificed 7 days after the booster and splenocytes were isolated for in vitro peptide-restimulation. For challenge studies, 10^7 pfu of live RSV-B1 was administered i.n. seven days after the booster immunization with peptide vaccines. Mice were sacrificed on day 4 post-challenge and the lung tissues were collected and subjected to further analysis by flow cytometry, ELISA, CTL assay and immunohistochemistry. Mice body weight was monitored daily.
(§2) […] RBC-free splenocyte suspensions prepared from the individual mice were seeded in individual wells of 96-well filtration plates (Millipore) precoated with capturing monoclonal antibodies for murine IL-2, IL-4 or IFN-γ (0.5 µg/ well) (eBioscience) and blocked with conditioned medium (CM) for 1 hour at room temperature. The splenocytes were added with the individual RSV F 9-mer synthetic peptides (2 µg each) or GLC-9 dissolved in CM (100 µL). The splenocytes added with Con A (10 µg/mL) were used as positive control. Unstimulated splenocytes were used as negative control. The plates were kept in a 37°C incubator equilibrated with 5% CO2 for 48 hours. The individual wells of the ELISPOT plates were washed three times with washing buffer (0.05% tween20 in PBS, PBS-T), and then 0.2 µg of the corresponding biotinylated detection monoclonal antibodies specific for IL-2, IL-4 and IFN-γ were added to detect the respective cytokines. After 2 hours of incubation at room temperature, the plates were washed and 100 µl of streptavidin-alkaline phosphatase (1∶ 250 dilution) was added to the individual wells, and the plates were incubated at room temperature for 45 minutes. Finally, the plates were washed four times with the wash buffer, and 100 µl of AEC (3-amine-9-ethylcarbazole, Sigma-Aldrich) substrate was added to each well and allowed to react for 30 minutes at room temperature in the dark. The plates were then washed with water, air-dried overnight, and the spots per well were scored using the immunospot counting reader (C.T.L. IMMUNOSPOT, CELLULAR TECHNOLOGY LTD). Results were expressed as the number of cytokine-secreting cells per 5×10^5 splenocytes seeded in the initial culture.
(§3) Figure 1 Induction of IFN-γ and IL-2 in splenocytes from RSV F peptide immunized HLA-A*0201 transgenic mice upon secondary recall. Splenocytes harvested on day 30 from HLA-A-Tg B6 mice primed and boosted at 20 days interval intranasally with 10^7 pfu of rAd-F0 (□) or 10^4 pfu of RSV-B1 (▪)were restimulated with 2 µg of the individual RSV F peptide or 10 µg/ml Con A for 5 days in the presence of murine IL-2 . After stimulation, 5×10^5 splenocytes were seeded to anti-IFN-γ (A) or anti-IL-2 (B) capture antibody coated ELISPOT plates for 2 days for ELISPOT assay as described in Materials and Methods. Cytokine-positive immunospots were developed and the results are expressed as the number of immunospots +/−2 standard deviations for each experimental group. Data is representative of results derived from two independent experiments, each with five mice per group.

[2] = tested on: splenocytes from HLA-A*0201 transgenic C57BL/6 mice; experiment: IFN-γ ELISPOT of splenocytes restimulated with peptide; assay type: cell-based, mouse; conditions: for IFN-γ ELISPOT, RSV: splenocytes of HLA-Tg B6 mice primed and boosted i.n. with 10^4 pfu RSV-B1; for IFN-γ ELISPOT, RSV / IFN-γ ELISPOT, rAd-F0: restimulated with 2 µg peptide, representative of two experiments, five mice per group; for IFN-γ ELISPOT, rAd-F0: splenocytes of HLA-Tg B6 mice primed and boosted i.n. with 10^7 pfu rAd-F0; for IFN-γ level in restimulated splenocytes (ELISPOT, text grading): splenocytes of rAd-F0- or RSV B1-primed and boosted HLA-Tg B6 mice, high = over 100 spots, moderate = over 50 spots
Method: as §1, §2, §3

HLA-A*0201 = target: T1, HLA-A*0201 (Homo sapiens, UniProt P04439, D140Y/D185E/D98H/E176V/E277Q/G131W/G231S/I119V/I121R/I166T/I218V/L300P/L318F/N151K/N90K/P208A/P217A/Q86G/Q94H/R138H/R169H/T345S); experiment: T2 cell-stabilization assay (T2-binding); conditions: for T2-binding Ratio of MFI: T2 cells 5×10^5, peptide 50 µg/mL + β2-microglobulin 5 µg/mL, 28°C 16–18 h, then brefeldin A 10 µg/mL 37°C 3 h, FITC anti-HLA-A2, flow cytometry, MFI relative to negative control HCV C55-74 (set as 1); for binding affinity, MFI higher than the baseline: baseline = negative control HCV C55-74, called modest binding affinity
T1 construct: Human T2 cells (purchased from the American Type Culture Collection, ATCC) (ATCC No. CRL-1992) expressing the HLA-A*0201 gene; endogenous in cells; host or cells: human T2 cells (ATCC CRL-1992)
Method: T2 cells (5×10^5) cultured in 96-well U-bottom plates were incubated with the individual 9-mer synthetic peptides (50 µg/mL) and β2-microglobulin (5 µg/mL; Sigma-Aldrich) at 28°C for 16–18 hours. Subsequently, brefeldin A (10 µg/mL) was added and the cells were incubated at 37°C for another 3 hours, then washed and stained with fluorescence isothiocyanate (FITC)-conjugated mouse anti-human HLA-A2 antibody (SeroTec). Peptide-loaded T2 cells were acquired and analyzed on the FACScan flow cytometer using CellQuest software (Becton Dickinson). GLC-9 peptide was used as positive control (PC). The mean fluorescence intensity (MFI) represents the binding affinity of each peptide compared to MFI (set as MFI = 1) obtained from negative control (NC), which is T2 cells loaded with HCV peptide C55-74.
Twenty-five 9-mer synthetic peptides derived from the RSV F glycoprotein sequence presumed to encompass HLA-A*0201 binding motifs were synthesized (Table 1). Each was tested for its ability to bind HLA-A*0201 molecules by T2 cell-based binding assay (data not shown). The relative mean fluorescence intensity (MFI) obtained from the positive control (PC) peptide derived from Epstein-Barr virus capsid protein (GLC-9, a previously defined HLA-A*0201-restricted CTL epitope) was twofold (MFI = 1.96) compared to the baseline MFI = 1 obtained from the negative control (NC) treated with an unrelated peptide HCV C55-74 (a C57BL/6-specific CD4 epitope). […] The remaining peptides had no detectable binding to the HLA-A*0201 molecules. Apparently, the different MFIs generated by binding of RSV F-derived peptides to HLA-A*0201 reflects on the binding specificity of different peptides to a given HLA molecule.

Substance: 16: HLA-A*0201-restricted 9-mer synthetic peptide from F protein of RSV-B1 strain (LMSNNVQIV) [compound 16]
- IL-2 ELISPOT, RSV [1]: 50.5 cytokine-secreting cells per 5×10^5 splenocytes
- IL-2 ELISPOT, rAd-F0 [1]: 52 cytokine-secreting cells per 5×10^5 splenocytes
- IL-2 level in restimulated splenocytes (ELISPOT, text grading) [1]: over 50 spots
- IFN-γ ELISPOT, RSV [2]: 28 cytokine-secreting cells per 5×10^5 splenocytes
- IFN-γ ELISPOT, rAd-F0 [2]: 54 cytokine-secreting cells per 5×10^5 splenocytes
- IFN-γ level in restimulated splenocytes (ELISPOT, text grading) [2]: over 50 spots
- T2-binding Ratio of MFI (HLA-A*0201): 1.60

Substance: 25: HLA-A*0201-restricted 9-mer synthetic peptide from F protein of RSV-B1 strain (SLIAVGLLL) [compound 25]
- IL-2 ELISPOT, RSV [1]: 44.5 cytokine-secreting cells per 5×10^5 splenocytes
- IL-2 ELISPOT, rAd-F0 [1]: 31 cytokine-secreting cells per 5×10^5 splenocytes
- IFN-γ ELISPOT, RSV [2]: 96 cytokine-secreting cells per 5×10^5 splenocytes
- IFN-γ ELISPOT, rAd-F0 [2]: 41 cytokine-secreting cells per 5×10^5 splenocytes
- IFN-γ level in restimulated splenocytes (ELISPOT, text grading) [2]: over 50 spots
- binding affinity, MFI higher than the baseline (HLA-A*0201; T2 cell-based binding assay): ~10%
- T2-binding Ratio of MFI (HLA-A*0201): 1.42

Substance: 18: HLA-A*0201-restricted 9-mer synthetic peptide from F protein of RSV-B1 strain (SVGNTLYYV) [compound 18]
- IL-2 ELISPOT, RSV [1]: 42 cytokine-secreting cells per 5×10^5 splenocytes
- IL-2 ELISPOT, rAd-F0 [1]: 0 cytokine-secreting cells per 5×10^5 splenocytes
- IFN-γ ELISPOT, RSV [2]: 92.5 cytokine-secreting cells per 5×10^5 splenocytes
- IFN-γ ELISPOT, rAd-F0 [2]: 115 cytokine-secreting cells per 5×10^5 splenocytes
- IFN-γ level in restimulated splenocytes (ELISPOT, text grading) [2]: over 100 spots
- binding affinity, MFI higher than the baseline (HLA-A*0201; T2 cell-based binding assay): ~10%
- T2-binding Ratio of MFI (HLA-A*0201): 1.29

Substance: 19: HLA-A*0201-restricted 9-mer synthetic peptide from F protein of RSV-B1 strain (KINQSLAFI) [compound 19]
- IL-2 ELISPOT, RSV [1]: 36.5 cytokine-secreting cells per 5×10^5 splenocytes
- IL-2 ELISPOT, rAd-F0 [1]: 52 cytokine-secreting cells per 5×10^5 splenocytes
- IL-2 level in restimulated splenocytes (ELISPOT, text grading) [1]: over 50 spots
- IFN-γ ELISPOT, RSV [2]: 7.5 cytokine-secreting cells per 5×10^5 splenocytes
- IFN-γ ELISPOT, rAd-F0 [2]: 200 cytokine-secreting cells per 5×10^5 splenocytes
- IFN-γ level in restimulated splenocytes (ELISPOT, text grading) [2]: over 100 spots
- T2-binding Ratio of MFI (HLA-A*0201): 1.08

Substance: 12: HLA-A*0201-restricted 9-mer synthetic peptide from F protein of RSV-B1 strain (VLTSKVLDL) [compound 12]
- IL-2 ELISPOT, RSV [1]: 36 cytokine-secreting cells per 5×10^5 splenocytes
- IL-2 ELISPOT, rAd-F0 [1]: 44 cytokine-secreting cells per 5×10^5 splenocytes
- IFN-γ ELISPOT, RSV [2]: 116.5 cytokine-secreting cells per 5×10^5 splenocytes
- IFN-γ ELISPOT, rAd-F0 [2]: 95.5 cytokine-secreting cells per 5×10^5 splenocytes
- IFN-γ level in restimulated splenocytes (ELISPOT, text grading) [2]: over 100 spots
- T2-binding Ratio of MFI (HLA-A*0201): 0.99

Substance: 9: HLA-A*0201-restricted 9-mer synthetic peptide from F protein of RSV-B1 strain (LLSTNKAVV) [compound 9]
- IL-2 ELISPOT, RSV [1]: 2 cytokine-secreting cells per 5×10^5 splenocytes
- IL-2 ELISPOT, rAd-F0 [1]: 5 cytokine-secreting cells per 5×10^5 splenocytes
- IFN-γ ELISPOT, RSV [2]: 1 cytokine-secreting cells per 5×10^5 splenocytes
- IFN-γ ELISPOT, rAd-F0 [2]: 27.5 cytokine-secreting cells per 5×10^5 splenocytes
- T2-binding Ratio of MFI (HLA-A*0201): 1.53

Substance: 24: HLA-A*0201-restricted 9-mer synthetic peptide from F protein of RSV-B1 strain (LLSLIAVGL) [compound 24]
- IL-2 ELISPOT, RSV [1]: 42 cytokine-secreting cells per 5×10^5 splenocytes
- IL-2 ELISPOT, rAd-F0 [1]: 5 cytokine-secreting cells per 5×10^5 splenocytes
- IFN-γ ELISPOT, RSV [2]: 0 cytokine-secreting cells per 5×10^5 splenocytes
- IFN-γ ELISPOT, rAd-F0 [2]: 84.5 cytokine-secreting cells per 5×10^5 splenocytes
- IFN-γ level in restimulated splenocytes (ELISPOT, text grading) [2]: over 50 spots
- T2-binding Ratio of MFI (HLA-A*0201): 1.71

Substance: 10: HLA-A*0201-restricted 9-mer synthetic peptide from F protein of RSV-B1 strain (STNKAVVSL) [compound 10]
- IL-2 ELISPOT, RSV [1]: 39.5 cytokine-secreting cells per 5×10^5 splenocytes
- IL-2 ELISPOT, rAd-F0 [1]: 0 cytokine-secreting cells per 5×10^5 splenocytes
- IFN-γ ELISPOT, RSV [2]: 9.5 cytokine-secreting cells per 5×10^5 splenocytes
- IFN-γ ELISPOT, rAd-F0 [2]: 43 cytokine-secreting cells per 5×10^5 splenocytes
- T2-binding Ratio of MFI (HLA-A*0201): 0.91

Substance: RPQPRGRRQPIPKARQPEGR [HCV C55-74, reference compound]
- binding to the HLA-A*0201 molecules (in words) (HLA-A*0201; T2 cell-based binding assay): no binding
- T2-binding Ratio of MFI (HLA-A*0201): 1
- T2-binding Ratio of MFI (HLA-A*0201; listed as N): 1.00
